Tests used:
tubulin protein = type: biochemical; settings: tubulin 3mg/mL, 37° C, 340 nm, 1h; read-out: Tubulin polymerisation inhibition IC50
Experimental: The tubulin polymerization experiment was performed using 'assay kit'(Cytoskeleton USA) following manufacturer's protocol based on the procedure described by of Shelanski et al, (1973) and Lee et al. (1977). Briefly, tubulin protein (3mg/mL) in tubulin polymerization buffer (80 mM PIPES, pH 6.9, 2 mM MgCl2, 0.5 mM EGTA, 1 mM GTP and 15% glycerol) was placed in prewarmed 96-well microtiter plates at 37° C in the presence of test compounds with variable concentrations. All samples were mixed well and polymerization was monitored kinetically at 340 nm every min for 1h using a Spectramax plate reader. The IC50 value was determined from dose-dependent analysis and is defined as the concentration that inhibits the rate of polymerization by 50%. Podophyllotoxin was used as standard tubulin polymerisation inhibitor as positive control.

[1] = tested on: various human cancer cell lines; assay: Cytotoxicity against various human cancer cell lines (summary statement); type: cell-based; settings: read-out: cytotoxicity against various human cancer cell lines, IC50
Experimental: The benzyl compounds were evaluated by Sulforhodamine B Assay as per reported method [Skehan etal., J. Natl. Cancer Inst.1990, 82, 1107]. The human cancer cell lines procured from National Cancer Institute, Frederick, U. S. A. were used in present study. Cells were grown in tissue culture flasks in complete growth medium (RPMI-1640 medium with 2 mM glutamine, pH 7.4 supplemented with 10% fetal bovine serum, 100 µg/ml streptomycin and 100 units/ml penicillin) in a carbon dioxide incubator (37°C, 5% CO2, 90% RH). The cells at subconfluent stage were harvested from the flask by treatment with trypsin (0.05% in PBS (pH 7.4) containing 0.02% EDTA). Cells with viability of more than 98%, as determined by trypan blue exclusion, were used for determination of cytotoxicity. The cell suspension required concentration of cells was prepared in complete growth medium. Stock solution of 2x10^-2 M of compounds were prepared in DMSO and further dilution was carried out complete growth medium containing 50µg/ml of gentamycin to obtained working test solution of required concentration. In vitro cytotoxicity against various human cancer cell lines was determined using 96-well cell culture plates. […] Cell growth was measured by staining with sulforhodamine B dye. […] The optical density (OD) was recorded on ELISA reader at 540nm. […]

MCF-7 (Breast cancer) = assay: Sulforhodamine B cytotoxicity assay; type: cell-based; settings: Homo sapiens, MCF7, 48 h, read-out: Human cancer cell lines IC50 MCF-7 (Breast cancer)
Experimental: (§1) The benzyl compounds were evaluated by Sulforhodamine B Assay as per reported method [Skehan etal., J. Natl. Cancer Inst.1990, 82, 1107]. The human cancer cell lines procured from National Cancer Institute, Frederick, U. S. A. were used in present study. Cells were grown in tissue culture flasks in complete growth medium (RPMI-1640 medium with 2 mM glutamine, pH 7.4 supplemented with 10% fetal bovine serum, 100 µg/ml streptomycin and 100 units/ml penicillin) in a carbon dioxide incubator (37°C, 5% CO2, 90% RH). The cells at subconfluent stage were harvested from the flask by treatment with trypsin (0.05% in PBS (pH 7.4) containing 0.02% EDTA). Cells with viability of more than 98%, as determined by trypan blue exclusion, were used for determination of cytotoxicity. The cell suspension required concentration of cells was prepared in complete growth medium. Stock solution of 2x10^-2 M of compounds were prepared in DMSO and further dilution was carried out complete growth medium containing 50µg/ml of gentamycin to obtained working test solution of required concentration. In vitro cytotoxicity against various human cancer cell lines was determined using 96-well cell culture plates. The 100µl of cell suspension was added to each well of the 96-well cell culture plates. The cells were allowed to grow in CO2 incubator (37°C, 5% CO2, 90% RH) for 24 hours. The test materials in complete growth medium (100 µl) were added after 24 hours incubation to the wells containing cell suspension. The plates were further incubated for 48 hours (37°C in an atmosphere of 5% CO2 and 90% relative humidity) in a carbon dioxide incubator after addition of test material and then the cell growth was stopped by gently layering trichloroacetic acid (50% TCA, 50 µl) on top of the medium in all the wells. The plates were incubated at 4°C for one hour to fix the cells attached to the bottom of the wells. The liquid of all the wells was gently pipetted out and discarded. The plates were washed five times with distilled water to remove TCA, growth medium low molecular weight metabolites, serum proteins etc. and air - dried. Cell growth was measured by staining with sulforhodamine B dye. The adsorbed dye was dissolved in Tris-HCl Buffer (100 µl/well, 0.01M, pH 10.4) and plates were gently stirred for 10 minutes on a mechanical stirrer. The optical density (OD) was recorded on ELISA reader at 540nm. Paclitaxel (Taxol), and 5-Fluorouracil were used as positive controls (Standard drugs).

THP-1 (Leukemia) = assay: Sulforhodamine B cytotoxicity assay; type: cell-based; settings: Homo sapiens, THP-1, 48 h, read-out: Human cancer cell lines IC50 THP-1 (Leukemia)
Experimental: as §1

HCT-116 (Colon) = assay: Sulforhodamine B cytotoxicity assay; type: cell-based; settings: Homo sapiens, HCT-116, 48 h, read-out: Human cancer cell lines IC50 HCT-116 (Colon)
Experimental: as §1

T-47D (Breast cancer) = assay: Sulforhodamine B cytotoxicity assay; type: cell-based; settings: Homo sapiens, T47D, 48 h, read-out: Human cancer cell lines IC50 T-47D (Breast cancer)
Experimental: as §1

A549 (Lung) = assay: Sulforhodamine B cytotoxicity assay; type: cell-based; settings: Homo sapiens, A549, 48 h, read-out: Human cancer cell lines IC50 A549 (Lung)
Experimental: as §1

[2] = tested on: Ehrlich Ascites Carcinoma (EAC); type: in vivo, Swiss mice
Experimental: Ehrlich ascites carcinoma (EAC) cells were collected from the peritoneal cavity of the Swiss mice harbouring 8-10 days old ascitic tumor. 1x10^7 EAC cells were injected intraperitoneally in Swiss mice selected for the experiment on day 0. The next day, animals were randomized and divided into different groups. The treatment groups contained 7 animals each and control group contained 10 animals. The treatment group was treated with 20 mg/kg of Compound 2 intra-peritoneally from day 1-9. One more of the treatment group received 5-fluorouracil (20 mg/kg, i.p) and it served as positive control. The tumor bearing control group was similarly administered normal saline (0.2 ml, i.p.). On day 12, animals were sacrificed and ascitic fluid was collected from peritoneal cavity of each mouse for the evaluation of tumor growth. Percent tumor growth inhibition was calculated based on the total number of tumor cells present in the peritoneal cavity as on day 12 of the experiment using the following formula. Percent tumor growth inhibition = (Av.no.of cells in control group−Av.no.of cells in treated group)/(Av.no.of cells in control group) × 100 [formula]

COc1cc(C2c3c(cc(OC)c(OC)c3OC)C(=O)C2Cc2ccc3c(c2)OCO3)cc(OC)c1OC (stereo not drawn) [Compound 2, 2-(3",4"-methylenedioxybenzyl)-3-(3',4',5'-trimethoxyphenyl)-4,5,6-trimethoxy-indan-1-one]
IC50 (tubulin protein): 2080 nM | IC50 [1]: 1000 to 3000 nM | IC50 (MCF-7 (Breast cancer)): 3000 nM | IC50 (THP-1 (Leukemia)): 1000 nM | IC50 (HCT-116 (Colon)): 3000 nM | IC50 (T-47D (Breast cancer)): < 1000 nM | IC50 (A549 (Lung)): 2000 nM | %Tumor Growth Inhibition ([2]; 20 mg/kg i/p day 1-9, Day 12): 67.64% | Av, Volume of ascitic fluid ([2]; 20 mg/kg i/p day 1-9, Day 12): 6.31 mL | Av. No. of tumor cells ([2]; 20 mg/kg i/p day 1-9, Day 12): 44.78 x 10^7 | Av. Weight of ascitic fluid ([2]; 20 mg/kg i/p day 1-9, Day 12): 6.02 g | % Tumor cell growth ([2]; 20 mg/kg i/p day 1-9, Day 12, control = 100): 32.36% | Mortality ([2]; 20 mg/kg i/p day 1-9, Day 12, dead/total animals): 0/7 | Body weight Day 1 ([2]; 20 mg/kg i/p day 1-9, EAC-bearing female Swiss mice, Day 1): 21.0 g | Body weight Day 5 ([2]; 20 mg/kg i/p day 1-9, EAC-bearing female Swiss mice, Day 5): 21.86 g | Body weight Day 9 ([2]; 20 mg/kg i/p day 1-9, EAC-bearing female Swiss mice, Day 9): 22.28 g | Body weight Day 12 ([2]; 20 mg/kg i/p day 1-9, EAC-bearing female Swiss mice, Day 12): 22.66 g | better activity (in-vivo) over the parent compound 12 ([2]; Ehrlich ascites carcinoma, 20mg/kg dose, relative to compound 12): 48.72%
